Earlier results as cited in patent US20070212388A1, “COMPOSITIONS COMPRISING POROUS ARTICLES AND USES IN IMPLANTABLE MEDICAL DEVICES” (Sahajanand Medical Technologies Pvt. Ltd., priority 2006, published 2007).

Details: for solubility in water: general statement, no test described

Row | SMILES | solubility in water | water solubility relative to genistein (compared with genistein)
1 | O=c1c(-c2ccc(O)cc2)coc2cc(O)cc(O)c12 [Genistein, 5,7-dihydroxy-3-(4-hydroxyphenyl)-4H-1-benzopyran-4-one] | practically insoluble in water | 
2 | O=c1c(-c2ccc(O)cc2)coc2cc(O[C@@H]3O[C@H](CO)[C@@H](O)[C@H](O)[C@H]3O)cc(O)c12 [Genistin] |  | greater water solubility than genistein
3 | O=c1c(O)c(-c2ccc(O)c(O)c2)oc2cc(O)cc(O)c12 [Quercetin, 2-(3,4-dihydroxyphenyl)-3,5,7-trihydroxy-4H-1-benzopyran-4-one] | practically insoluble in water | 
